Measured values published in US12642798B2, “Aripiprazole prodrug composition” (ALKERMES PHARMA IRELAND LIMITED, priority 2014, dated 2026).

Assay: Particle size analysis by laser light scattering (Horiba)
Format: physicochemical
Conditions: solid particulate form prior to milling
Source text: The term “particle size” or “volume based particle size” or “volume based particle size distribution” as used herein is equivalent to and also referred to as the Dv50 or D50 and means that at least about 50% of the aripiprazole prodrug particles have a diameter of less than the size specified. The aforementioned terms are used interchangeably herein. For example a volume based particle size (Dv50) of less than 1000 nm, means that 50% of the particle population has a diameter of less than 1000 nm when measured by static or dynamic light scattering techniques known to those skilled in the art. […] Unless otherwise specified, all particle sizes are specified in terms of volume based measurements and are measured by laser light scattering/diffraction. Particle sizes are then determined based on Mie scattering theory. More specifically, unless otherwise specified, volume based particle size (Dv50) is determined using a Horiba LA-950 standard model laser particle size analyser. Deionized water or water with a small quantity (for example 0.1% w/w) of surface stabilizer (for example polysorbate 20) is used as the sizing medium unless otherwise specified. […]
The particle size of the present composition may be measured using techniques such as light scattering with either water or a dilute surface stabilizer solution as the diluent. […]

SMILES	particle size (Dv50) prior to milling
CCCCCCCCCCCC(=O)OCN1C(=O)CCc2ccc(OCCCCN3CCN(c4cccc(Cl)c4Cl)CC3)cc21 [aripiprazole lauroxil, Dodecanoic acid, [7-[4-[4-(2,3-dichlorophenyl)-1-piperazinyl]butoxy]-3,4-dihydro-2-oxo-1(2H)-quinolinyl]methyl ester]	greater than 10 microns
CCCCCC(=O)OCN1C(=O)CCc2ccc(OCCCCN3CCN(c4cccc(Cl)c4Cl)CC3)cc21 [aripiprazole cavoxil, (7-(4-(4-(2,3-Dichlorophenyl)piperazin-1-yl)butoxy)-2-oxo-3,4-dihydroquinolin-1(2H)yl)methyl hexanoate]	greater than 8 microns
